Test results: article PMC5640650, “NatD promotes lung cancer progression by preventing histone H4 serine phosphorylation to activate Slug expression” (Nature Communications, 2017)

Key:
CK2α = experiment: Slug expression after CK2α RNA interference, H1299 cells; assay type: cell-based, human; conditions: Scr and NatD-KD H1299 cells, particularly in NatD-KD cells
Excerpt: Fig. 7 Downregulation of Nt-acetylation of histone H4 facilitates nuclear accumulation of CK2α and its binding to histone H4 in lung cancer cells. a Representative confocal scanning images of CK2α localization in Scr and H1299 cells (left panel). The staining intensity of CK2α was quantified by software ImageJ from NIH (right diagram). Scale bars, 5 μm. […] Equal peptide biotinylated on C terminus is shown by dot blot analysis with streptavidin (middle panel). […] IgG served as a negative control. Results are shown as mean ± s.d. from three independent experiments; two-tailed Student’s t-test, **P < 0.01 compared with the indicated control. g Quantitative real-time PCR analysis of mRNA levels of CK2α and Slug normalized to GAPDH in Scr and NatD-KD H1299 cells in the absence or presence of siRNA to CK2α. NC, siRNA mimics negative control. Data are mean ± s.d. of three independent experiments; Student’s t-test, *P < 0.05, **P < 0.01 compared with the indicated control. h Western blot analysis of indicated proteins from Scr and NatD-KD H1299 cells in the absence or presence of siRNA to CK2α.
siRNA against CK2α and negative control (NC) siRNA were synthesized by RiboBio Co. Ltd (Gaungzhou, China).

H1299 cells = experiment: TGF-β1-induced EMT experiment (morphology), H1299 cells; assay type: cell-based, human; conditions: Scr H1299 cells, TGF-β1
Excerpt: Fig. 4 Silencing NatD suppresses cancer cell EMT by downregulating Slug. a Representative phase contrast images of Scr and NatD-KD H1299 cells treated with TGF-β1. Data are representative of three independent experiments. Scale bar, 100 μm. b Quantitative real-time PCR analysis of mRNA levels of indicated key EMT-related genes in Scr and NatD-KD H1299 cells normalized to GAPDH in the absence or presence of TGF-β1. Results are shown as mean ± s.d. of three independent experiments. Two-tailed Student’s t-test was used. **P < 0.01 or *P < 0.05 compared with the indicated control. c Western blot analysis of indicated protein levels in Scr and NatD-KD H1299 cells in the absence or presence of TGF-β1. GAPDH served as a loading control. Data are representative of three independent experiments. d Immunofluorescence analysis of Scr and NatD-KD H1299 cells in the absence or presence of TGF-β1 stained for E-cadherin and N-cadherin. […] (bottom panels) Cells were counted in at least four random microscope fields (×100 magnification) for the corresponding assays; migration and invasion are expressed as a percentage of control. […] Two-tailed Student’s t-test was used. **P < 0.01 compared with the indicated control. g Quantitative real-time PCR analysis of the mRNA levels of NatD and indicated key EMT-related genes (normalized to GAPDH) in Scr cells, NatD-KD cells, and NatD-KD + Slug cells. […]

CK2α siRNA: siRNA against CK2α: 5′-GAAUUAGAUCCACGUUUCA-3′ (chemistry not given here)
Slug expression after CK2α knockdown (CK2α): greatly activated
Slug expression after CK2α knockdown (CK2α; listed as knockdown of CK2α by RNA interference): significantly increased

TGF-β1: TGF-β1 used to induce EMT [reference compound]
morphology on TGF-β1 treatment, Scr cells (H1299 cells): developed a spindle-like appearance and mesenchymal morphology
